Entries after “also recorded” stand apart in the source; their conditions may differ.
How the values were obtained:
[1] = system: OGD cells (retinal ganglion cells); test: Increase in survival of OGD cells at fixed concentrations (similar assay); assay type: cell-based, rat
[2] = system: rat middle cerebral artery occlusion (MCAO) model of focal ischemia; test: MCAO in vivo stroke model: ischemic, infarct and edema volumes; details: for Reducing post-ischemic damage (in words): rats; for % Protection, Cortical infarct volume / % Protection, Cortical penumbra / % Protection, Edema / % Protection, Subcortical infarct volume / % Protection, Subcortical penumbra / % Protection, Total infarct volume / % Protection, Total ischemic volume: rat
Protocol: Compounds were administered by either an IV (intravenous) or ICV (intracerebroventricular) route in the MCAO model, described above and in Example 18. The extent of ischemic damage in the absence and presence of compound was assessed by visualization of coronal brain slices. Conversion of 2,3,5-triphenyltetrazolium chloride (TTC) to formazan in normal tissue produces a red color. Unstained areas (white) constitute the infarct, whereas pink areas between white (infarction) and red stained areas (normal brain) define the ischemia penumbra. Preliminary studies confirmed that tissues stained pink contained mixed populations of living and dead cells.
Results are also illustrated in FIGS. 2-3 for ICV administration and FIGS. 4-5 for IV administration.
Adult male Wistar rats weighing 310-380 g were used. Animals were fasted overnight but allowed free access to water. Anesthesia was induced and maintained with 3% isoflurane in […]. Systemic blood pressure was recorded before, during and after middle cerebral artery occlusion (MCAO) and immediately before administering the test compound. Subjects received test compound SNX 912, 5 mg/kg ICV pre-MCAO, or 25 mg/kg IV immediately following reperfusion, after two hours MCAO, as compared to control subjects, which received deionized water. Temperature was controlled and recorded before, during and following reperfusion. After reperfusion, temperature was measured every hour for 4 hrs post-reperfusion.
All animals were subjected to 2 hr of MCAO using the intraluminal filament technique of Koizume et al. (1986) as modified by Zhao et al. (1994). A midline surgical incision was made to expose the right common, external and internal carotid arteries. The common cartotid, external carotid and occipital arteries were tightly ligated, and the internal carotid artery was temporarily closed with a microvascular clip. A small incision was made in the common carotid artery and a nylon monofilament was inserted into the internal carotid artery through the common carotid artery. The filament was then carefully advanced 19 mm cephalad to occlude the middle cerebral artery at its site of origin within the Circle of Willis. […] After 2 hr of MCAO, the animals were re-anesthetized with 1.5% halothane, and the occlude filament was withdrawn to allow reperfusion.
Because MCAO by the intraluminal filament technique can give rise to intra- and post-ischemia hyperthermia, rectal temperature was controlled by external heating and cooling for 6 hrs after initiating MCAO. Rectal temperature was maintained at 37.5+/−0.5° C.
Animals were killed 24 hr post-reperfusion by CO2 asphyxiation. Following asphyxiation, the brains were quickly removed and chilled in ice cold 0.9% saline for 10 min. To visualize the extent of ischemic damage, seven 2 mm thick coronal slices were cut from each brain with a tissue slicer beginning with 1 mm posterior to the anterior pole. The slices were immersed in a 0.9% saline solution containing 1.0% 2,3,5-tripheyltetrazolim chloride (TTC) and incubated at 37° C. for 30 minutes, and observed for the presence of formazan (red), which is produced by the reduction of TTC by endogenous dehydrogenase activity in normal living tissues.

[3] = system: Oxygen/Glucose Deprived RGCs (retinal ganglion cells); test: Protection of oxygen/glucose deprived (OGD) retinal ganglion cells, EC50; details: overall judgement
Protocol: Each compound was added to control cells and to cells deprived of oxygen and glucose for the time period from 30 minutes prior to OGD, during OGD, and for 24 and 48 hours after OGD.
RGCs from postnatal day 8 (P8) Sprague-Dawley rats were purified as previously described (Barres et al., 1988; Meyer-Franke et al., 1995). Purified retinal ganglion cells were plated onto tissue culture plastic precoated with poly-D-lysine and merosin, and cultured in serum-free Neurobasal medium (Gibco) containing various supplements.
Approximately 5,000 purified RGCs were cultured in 96-well plates (Falcon), precoated with poly-D-lysine (PDL, 70 kD, 10 mg/ml; Sigma) and merosin (2 mg/ml; Gibco). The RGCs were cultured in serum-free Neurobasal medium (Brewer et al., 1993; Gibco) containing Sato-Bottenstein and B27 (Gibco) supplement, insulin (Sigma, 5 mg/ml), brain-derived neurotrophic factor (BDNF, 25 ng/ml; Preprotech), ciliary neurotrophic factor (CNTF, 20 ng/ml; Preprotech) and forskolin (10 mM, Sigma). The percentage of surviving cells was assessed at 3, 7, and 14 days by the MTT assay.
Retinal ganglion cells were grown in 96-well plates for 5 days in serum-free medium as described above. On the sixth day cells were washed three times in a salt solution, e.g. Earle's balanced salt solution (EBSS, Gibco), containing glucose for control cells, and lacking glucose for test cells (oxygen/glucose-deprived cells). Control cells were further incubated in a 5% CO2 incubator while OGD cells were deprived of oxygen in an anaerobic chamber (for 3 hours). Test compounds were added to control cells and OGD cells for the time period from 30 minutes prior to OGD, during OGD, and for 24 and 48 hours after OGD.
After 3 hours OGD, control and test cells were transferred to growth medium with glucose and cultured an additional 48 hours in a 5% CO2 incubator, followed by a determination of cell viability using MTT, propidium iodide and annexin assays.
For the cell viability assay, MTT was added to culture and incubated at 37° C. for 1 hr. […] Viable and dead cells are counted by bright field microscopy at various times, e.g. 24, 48, or 72 hours after oxygen/glucose and/or growth factor deprivation. All values are reported as the mean (average) +/− the standard error of the mean (SEM) for at least three replicate cultures.

[4] = system: Oxygen/Glucose Deprived Cardiac Myocytes; test: Protection of oxygen/glucose deprived cardiac myocytes; assay type: cell-based
Protocol: The hypoxic cardiac myocyte (CM) has been used as a simplified model of myocardial ischemia. In the present study, cultures of CM's were deprived of oxygen and glucose for 8 hours, then also exposed to 24-48 hours reoxygenation. It is known that reperfusion of the damaged areas can be one of the major mechanisms of myocardial cellular injury. […] Cell survival was quantitated as described above.

[5] = IV (25 mg/kg) immediately following reperfusion after 2 h MCAO
[6] = 8 hrs OGD / 24 hrs reoxygenation
[7] = 8 hrs OGD / 48 hrs reoxygenation

Nc1cccc2[nH]c(Cc3nc4ccccc4[nH]3)nc12 [SNX 912, 2-(benzimidazol-2′-yl)methyl-4-amino benzimidazole]
Percent Increase in Survival over OGD Control Cells ([1]; Concn 0.001 μM): ++ (50%-100% increase) | Percent Increase in Survival over OGD Control Cells ([1]; Concn 0.01 μM): ++ (50%-100% increase) | Percent Increase in Survival over OGD Control Cells ([1]; Concn 0.1 μM): ++ (50%-100% increase) | Percent Increase in Survival over OGD Control Cells ([1]; Concn 1 μM): +++ (>100% increase) | Percent Increase in Survival over OGD Control Cells ([1]; Concn 10 μM): +++ (>100% increase) | Reducing post-ischemic damage (in words) ([2]; 5 mg/kg ICV): effective | Reducing post-ischemic damage (in words) ([2]; 25 mg/kg IV): effective | % Protection, Cortical infarct volume ([2]; ICV (5 mg/kg) pre-MCAO): 76% | % Protection, Cortical penumbra ([2]; ICV (5 mg/kg) pre-MCAO): 30% | % Protection, Edema ([2]; ICV (5 mg/kg) pre-MCAO): 80% | % Protection, Subcortical infarct volume ([2]; ICV (5 mg/kg) pre-MCAO): 75% | % Protection, Subcortical penumbra ([2]; ICV (5 mg/kg) pre-MCAO): 7% | % Protection, Total infarct volume ([2]; ICV (5 mg/kg) pre-MCAO): 76% | % Protection, Total ischemic volume ([2]; ICV (5 mg/kg) pre-MCAO): 47% | % Protection, Cortical infarct volume [2, 5]: 53% | % Protection, Cortical penumbra [2, 5]: 10% | % Protection, Edema [2, 5]: 26% | % Protection, Subcortical infarct volume [2, 5]: 55% | % Protection, Subcortical penumbra [2, 5]: 18% | % Protection, Total infarct volume [2, 5]: 55% | % Protection, Total ischemic volume [2, 5]: 32% | Effectiveness in protecting OGD RGCs (in words, from Tables 5 and 6) [3]: more effective overall than the unsubstituted compound | EC50 [4, 6]: 310 nM | TI (therapeutic index) [4, 6]: >30 | EC50 [4, 7]: 55 nM | TI (therapeutic index) [4, 7]: >200 | Protection of cardiac myocytes from apoptotic cell death (in words) ([4]; compared to untreated OGD cells, dose dependent, nanomolar concentrations): protected the cardiac myocytes from apoptotic cell death; also recorded: effective

Reference: patent US6541486B1, “Bis-benzimidazole compounds and analogs thereof for inhibiting cell death” (Elan Pharma International Ltd., priority 1999, dated 2003)
